The source of these data is patent US8937193B2, “Apogossypolone derivatives as anticancer agents” (Sanford-Burnham Medical Research Institute, priority 2009, dated 2015).

Structures are written as SMILES. Like-named read-outs stand apart in the source and are kept apart here.

One data set is described as follows: EC50 values of FIG. 3(B). The settings on record: test not named.
The format of data set [1] is physicochemical. From the text: The chemical stability of solid compounds may be evaluated at room temperature. The stability of the compound was monitored using a combination of HPLC and LCMS.
Assay in data set [2]: not given
The source holds these as a separate data set.

Another data set concerns PPC-1 xenograft tumors. The data set can be described thus: PPC-1 tumor xenograft study in nude mice.
The target of the next data set is Bcl-2 (Homo sapiens (Human), UniProt P10415). The data set can be described thus: Fluorescence polarization competitive binding assay (FPA), Bcl-2. The settings on record: displacement of BH3 peptide. A general note: Fluorescence polarisation rises when a labelled molecule tumbles more slowly, as on binding a larger partner.
The next data set concerns the target Bfl-1 (Homo sapiens (Human), UniProt Q16548). Put plainly: Fluorescence polarization competitive binding assay (FPA), Bfl-1. The settings on record: displacement of BH3 peptide.
Data set [3] deals with T1, Bcl-XL (Homo sapiens (Human), UniProt Q07817). The data set can be described thus: Isothermal titration calorimetry (ITC), Bcl-XL. The format is binding. (In ITC the heat of successive injections is recorded.)
Target sequence in this assay (Q07817 whole entry): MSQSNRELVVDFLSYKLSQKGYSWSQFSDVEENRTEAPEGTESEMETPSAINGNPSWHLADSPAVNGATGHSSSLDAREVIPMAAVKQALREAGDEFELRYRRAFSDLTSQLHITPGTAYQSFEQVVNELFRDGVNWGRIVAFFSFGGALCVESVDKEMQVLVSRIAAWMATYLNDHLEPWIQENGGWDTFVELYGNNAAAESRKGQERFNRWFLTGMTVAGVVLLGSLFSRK
For the next data set, the system named is primary CLL cells. The data set can be described thus: Annexin-V apoptosis assay, primary CLL cells. The data set is classed as cell-based, human.
A further data set concerns the target Mcl-1 (Homo sapiens (Human), UniProt Q07820). The data set can be described thus: Fluorescence polarization competitive binding assay (FPA), Mcl-1. The settings on record: displacement of BH3 peptide.
For data set [4] the following is noted: administered orally (6a); cited from earlier work.
For data set [5], the target named is T1, Bcl-XL. Put plainly: Fluorescence polarization competitive binding assay (FPA), Bcl-XL. The settings on record: displacement of BH3 peptide.
Target sequence in this assay (Q07817 1-211): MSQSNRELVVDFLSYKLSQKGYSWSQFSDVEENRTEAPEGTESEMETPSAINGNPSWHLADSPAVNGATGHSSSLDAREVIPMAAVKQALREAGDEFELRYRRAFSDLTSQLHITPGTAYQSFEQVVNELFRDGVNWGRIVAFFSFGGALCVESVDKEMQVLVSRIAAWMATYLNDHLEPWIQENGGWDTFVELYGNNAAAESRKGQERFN
Method: (§3) For competitive binding assays, 100 nM GST-BCL-XL ΔTM protein was preincubated with the tested compound at varying concentrations in 47.5 μL PBS (pH=7.4) in 96-well black plates at room temperature for 10 min, then 2.5 μL of 100 nM FITC-labeled Bak BH3 peptide was added to produce a final volume of 50 μL. The wild-type and mutant Bak BH3 peptides were included in each assay plate as positive and negative controls, respectively. After 30 min incubation at room temperature, the polarization values in millipolarization units were measured at excitation/emission wavelengths of 480/535 nm with a multilabel plate reader (PerkinElmer). IC50 was determined by fitting the experimental data to a sigmoidal dose-response nonlinear regression model (SigmaPlot 10.0.1, Systat Software, Inc., San Jose, Calif., USA). Data reported are mean of three independent experiments±standard error (SE). […] Fluorescence polarization was measured after 10 min.
Data set [6] is described as follows: In vitro plasma stability. The settings on record: for Plasma Stability (T = 40 mins): Table 4.
From the text: (§4) To test the pharmacological properties of the compounds of Formula I, the in vitro plasma stability, microsomal stability, and cell membrane permeability may be determined.
Data set [7] concerns the target T1, Bcl-XL. Put plainly: 1D 1H-NMR binding assay against Bcl-XL. On the set-up: key: +++: Very Active; ++: Active; +: Mild; −: Weak. The settings on record: 4-point-rating scale, binding to Bcl-XL.
Target sequence in this assay (Q07817 whole entry): as the sequence (Q07817 whole entry) above
The nature of data set [8]: In vitro microsomal stability. The settings on record: Table 4.
From the text: as §4
For the next data set, the system named is H1299 cell line. The data set can be described thus: ATP-LITE cell viability assay, H1299. The settings on record: Homo sapiens, NCI-H1299, 72 h, 3 days. The format is cell-based. On the procedure:
(§1) The activity of the compounds of Formula I against human cancer cell lines (PC3ML, H460, H1299, RS11846) may be assessed by using the ATP-LITE assay (PerkinElmer). All cells are seeded in either F12 or RPMI1640 medium with 5 mM L-glutamine supplemented with 5% fetal bovine serum (Mediatech Inc.), penicillin and streptomycin (Omega). For maintenance, cells are cultured in 5% FBS. Cells plated into 96 well plates at varying initial densities depending on doubling time. H460 and H1299 plated at 2000 cells/well, A549 and PC3 at 3000 cells/well, and […] at 10,000 cells/well. The compounds are diluted to final concentrations with 0.1% DMSO. Prior to dispensing the compounds onto cells, fresh 5% media is placed into the wells. Administration of compounds occurs 24 hours after seeding into the fresh media. Cell viability may be evaluated using ATP-LITE reagent (PerkinElmer) after 72 hours of treatment. Data are normalized to the DMSO control-treated cells using Prism version 5.01 (Graphpad Software).
(§2) The activity of the compounds against human cancer cell lines (PC3, H460, H1299) were assessed by using the ATP-LITE assay (PerkinElmer). All cells were seeded in either […] or RPMI1640 medium with 5 mM L-glutamine supplemented with 5% fetal bovine serum (Mediatech Inc.), penicillin and streptomycin (Omega). For maintenance, cells were cultured in 5% FBS. Cells plated into 96 well plates at varying initial densities depending on doubling time. H460 and H1299 plated at 2000 cells/well and PC3 at 3000 cells/well. Compounds were diluted to final concentrations with 0.1% DMSO. Prior to dispensing compounds onto cells, fresh 5% media was placed into wells. Administration of compounds occurred 24 hours after seeding into the fresh media. Cell viability was evaluated using ATP-LITE reagent (PerkinElmer) after 72 hours of treatment. Data were normalized to the DMSO control-treated cells using Prism version 5.01 (Graphpad Software).

Another data set concerns PC3 cell line. The data set can be described thus: ATP-LITE cell viability assay, PC3. The format is cell-based. Conditions: Homo sapiens, PC-3, 72 h, 3 days. Here is the method:
as §2

Another data set has as its system BP3 cell line. The data set can be described thus: Annexin V-FITC and propidium iodide apoptosis assay, BP3. The data set is classed as cell-based, human. The settings on record: Homo sapiens, BP3, 24 h; Annexin V-FITC and propidium iodide assay, 1 day.
In the next data set the test system is RS4;11 cell line. The data set can be described thus: Annexin V-FITC and propidium iodide apoptosis assay, RS4;11. The format is cell-based. Conditions: Homo sapiens, RS4-11, 24 h, 1 day.
Data set [9] has as its system H460 cell line. The data set can be described thus: ATP-LITE cell viability assay, H460. The format is cell-based. The settings on record: Homo sapiens, NCI-H460, 72 h, 3 days. Here is the method: as §1, §2
Data set [10] has as its system H460 cell line. Conditions: pan-Bcl-2 family inhibitor from literature; cited from earlier work.

Mcl-1, sequence (Q07820 whole entry): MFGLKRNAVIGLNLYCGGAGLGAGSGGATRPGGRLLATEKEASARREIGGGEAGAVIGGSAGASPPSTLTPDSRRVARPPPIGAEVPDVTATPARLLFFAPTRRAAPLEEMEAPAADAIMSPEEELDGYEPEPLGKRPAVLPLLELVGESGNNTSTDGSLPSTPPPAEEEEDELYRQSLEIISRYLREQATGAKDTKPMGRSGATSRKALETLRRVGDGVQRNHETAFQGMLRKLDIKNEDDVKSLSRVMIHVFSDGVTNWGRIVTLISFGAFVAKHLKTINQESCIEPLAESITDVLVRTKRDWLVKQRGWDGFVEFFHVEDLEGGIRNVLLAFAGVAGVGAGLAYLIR
Bfl-1, sequence (Q16548 whole entry): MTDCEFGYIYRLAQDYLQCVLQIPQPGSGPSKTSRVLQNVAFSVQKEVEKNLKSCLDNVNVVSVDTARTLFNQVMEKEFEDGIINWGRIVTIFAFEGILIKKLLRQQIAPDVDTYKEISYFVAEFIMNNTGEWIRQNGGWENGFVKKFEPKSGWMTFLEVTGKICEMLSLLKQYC
Bcl-2, sequence (P10415 whole entry): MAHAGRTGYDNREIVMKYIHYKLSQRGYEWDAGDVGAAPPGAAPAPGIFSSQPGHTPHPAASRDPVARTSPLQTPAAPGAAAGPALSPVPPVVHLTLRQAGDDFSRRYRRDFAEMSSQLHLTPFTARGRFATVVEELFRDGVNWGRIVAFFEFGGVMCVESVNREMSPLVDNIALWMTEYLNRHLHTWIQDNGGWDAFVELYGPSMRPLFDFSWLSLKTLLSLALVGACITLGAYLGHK
Method for BP3 cell line: (§5) The apoptotic activity of the compounds against RS4;11, BP3 and primary CLL cells was assessed by staining with Annexin V-FITC and propidium iodide (PI). Cells were cultured in RPMI 1640 medium (Mediatech Inc., Herndon, Va. 20171) containing 10% fetal bovine serum (Mediatech Inc., Herndon, Va. 20171) and Penicillin/Streptomycin (Mediatech Inc., Herndon, Va. 20171). […] The percentage of viable cells was determined by FITC-Annexin V- and propidium iodide (PI)-labeling, using an Apoptosis Detection kit (BioVision Inc.), and analyzing stained cells by flow cytometry (FACSort; Bectin-Dickinson, Inc.; Mountain View, Calif.). Cells that were annexin-V-negative and PI-negative were considered viable.
Method for Bcl-2: as §3
Method for Bfl-1: as §3
Method for Mcl-1: as §3
Method for PPC-1 xenograft tumors: Female 6-week-old nude mice were purchased from Charles River Laboratories. 5×10^6 PCC-1 cells suspended in 0.2 ml PBS were injected subcutaneously into a flank region of each nude mouse. Tumor bearing mice were size matched (200 mm^3) into treatment and control group, ear tagged, and monitored individually. Tumor volume was measured two to three times weekly by digital calipers (volume=length×width^2/2). All studies use 6 mice per group. […] Control mice received saline. The injections were given three times in first week, twice in second week and once in third week and a total of six injections were administered during the experiment. When all tumors of the control group exceed 2000 mm^3 in volume, the animal experiment was terminated. Tumor growth inhibition ratios (T/C %) were calculated by dividing the average tumor volume in the treatment group by the average tumor volume in the control group.
Method for RS4;11 cell line: as §5
Method for primary CLL cells: as §5

Consider `Cc1cc2c(C(C)C)c(O)c(O)cc2c(O)c1-c1c(C)cc2c(C(C)C)c(O)c(O)cc2c1O` [Apogossypol], for which the “degraded after 1 hour incubation in rat microsomal preparations” value was determined as 36%. Also, in “EC50 values of FIG. 3(B)”, it took 2.8 µM to reach a half-maximal effect (EC50). The “degraded after 60 days at room temperature” value in [1] is recorded as roughly 80%. Moreover, in [2], the “degraded after 1 hour incubation in rat plasma” value is 47%.

On to `CC1=C(C2=C(C)C(=O)c3c(cc(O)c(O)c3C(C)C)C2=O)C(=O)c2cc(O)c(O)c(C(C)C)c2C1=O` [Compound 6a, 6,6′,7,7′-tetrahydroxy-5,5′-diisopropyl-3,3′-dimethyl-2,2′-binaphthyl-1,1′,4,4′-tetraone, reference compound], for which the “average body weight losses during the treatment” value in the data set with PPC-1 xenograft tumors (50 mg/kg i.p.) turned out to be 9.3%. Moreover, the “weight loss in first week” value in the data set with PPC-1 xenograft tumors (50 mg/kg i.p. three times in first week) is on record as roughly 5%. Besides, the IC50 came to 0.37 ± 0.02 µM on Bcl-2, 2.17 ± 0.35 µM on Bfl-1, 0.54 ± 0.03 µM on Mcl-1 and 0.63 ± 0.02 µM at Bcl-XL [5]. Further, on Bcl-XL [3], the Kd was determined as 2.8 µM. The “LD50 primary CLL samples” value was greater than 30 µM in the data set with primary CLL cells (comparison of 6c with 6a) and greater than 30 µM in the data set on primary CLL cells (two primary CLL samples, one day Annexin-V apoptosis assay). Moreover, the “maximum tolerated dose (MTD)” value in data set [4] was “above 240 mg/kg”. Moreover, the “degraded after 1 hour incubation in rat plasma” value in [6] (1 h, rat plasma (preparations)) worked out at 23%. The “Plasma Stability (T = 40 mins)” value in [6] came out at 77%. Besides, the “1D-1H NMR” value at Bcl-XL [7] is “+++”.

Consider `CC1=C(C2=C(C)C(=O)c3c(cc(O)c(O)c3CC(C)C)C2=O)C(=O)c2cc(O)c(O)c(CC(C)C)c2C1=O` [Compound 6b, 6,6′,7,7′-tetrahydroxy-5,5′-diisobutyl-3,3′-dimethyl-2,2′-binaphthyl-1,1′,4,4′-tetraone], for which the half-maximal inhibitory concentration (IC50) on Bcl-2 amounted to 0.25 ± 0.02 µM; at Bfl-1, 1.41 ± 0.11 µM; at Mcl-1, 0.47 ± 0.03 µM; on Bcl-XL [5], 0.55 ± 0.06 µM. Further, the dissociation constant Kd at Bcl-XL [3] is 1.5 ± 0.8 µM. The “Plasma Stability (T = 40 mins)” value in data set [6] is on record as 98%. Further, in data set [8], the “Microsomal Stability (T = 40 mins)” value was 69%. Besides, the “1D-1H NMR” value at Bcl-XL [7] is reported as “+++”.

For `CC1=C(C2=C(C)C(=O)c3c(cc(O)c(O)c3CCc3ccccc3)C2=O)C(=O)c2cc(O)c(O)c(CCc3ccccc3)c2C1=O` [Compound 6e, 6,6′,7,7′-tetrahydroxy-3,3′-dimethyl-5,5′-diphenethyl-2,2′-binaphthyl-1,1′,4,4′-tetraone], the EC50 with H1299 cell line is 0.85 ± 0.36 µM; in the data set with PC3 cell line, 1.4 ± 0.14 µM; with BP3 cell line, 8.72 ± 2.53 µM; in the data set on RS4;11 cell line, 4.75 ± 0.01 µM; with H460 cell line [9], 1.04 ± 0.13 µM. Further, the “Plasma Stability (T = 40 mins)” value in [6] is given as 81%. Moreover, in data set [8], the “Microsomal Stability (T = 40 mins)” value is recorded as 89%.

`COC1=CC(c2cc3ccccc3[nH]2)=N/C1=C\c1[nH]c(C)cc1C` [GX15-070]: the IC50 in the data set on H460 cell line [10] was 3.85 µM.

One may read the EC50 as the concentration needed to bring the measured effect to its halfway point. As a reminder, the IC50 is the concentration that gives 50% inhibition. As usually defined, the Kd is the constant that tells how readily two partners part at equilibrium.
